According to patent US8350077B2 (VERTEX Closed Joint Stock Company, priority 2008, dated 2013):

Assays:
[1] = in vitro
Procedure: The detection was carried out on the wave length 220 nm. The samples dosing on the column was carried out by the loop 20 μl.
(§1) For the study of Creatine amides stability, 1 ml of water or blood plasma was added to 200 μl of aqueous solution of starting amide with a concentration of 2÷3 mg/ml then shaken; a probe volume of 200 μl was taken up immediately and analysis of an initial concentration of the Creatine amide was carried out. Further, the solution was placed into a vibro-thermostat at a temperature of 37° C., then aliquote 200 μl was taken up in 0.5, 1, and 3 hours of thermostatics. 20 μl 10% solution of trichloroacetic acid was added to the taken probe, and kept for 15 min at temperature (−)24° C., then centrifuged at 6000×g for 5 minutes for sedimentation of plasma proteins, supernatant was taken up and its analysis was carried out.
(§2) For evaluation of samples' stability, peak areas of a corresponding compound at the beginning of experiment and at selected time intervals were compared (Tables 1, 2).

[2] = in vitro; remark: listed apart in the source
Procedure: Study of the Creatine derivatives stability in aqueous solution, as well as in human and rat blood plasma was carried out by the method of Reversed Phase HPLC using a chromatography system, known as Beckman System Gold™ (USA) in the following configuration: Programmable Solvent Module 126, Manual Injector Rheodyne 7725i, Programmable Detector Module 166, featured with the Beckman System Gold Chromatography Software™. The analysis was carried out on the column Luna 5μ C18(2) 100 Å 150×4.6 mm (Phenomenex, USA) with the precolumn Guard Cartridge C18 at the flow rate 1 ml/min in the linear gradient of acetonitrile: for analogue from the Example 1 from 5 to 25% of acetonitrile in 20 min (A: 0.1% of […]—H2O, B: 0.1% of H3PO4-acetonitrile), in case of substance from the Examples 2÷8: from 3 to 23% of acetonitrile in 20 minutes. The detection was carried out on the wave length 220 nm. The samples dosing on the column was carried out by the loop 20 μl.
as §1, §2

[3] = dosages up to 30 g for a few days, per os; cited from earlier work
[4] = peak area relative to start, 37° C.

Structure (SMILES)	Stability in human blood plasma, 0 h ([1]; human, plasma)	Stability in human blood plasma, 0.5 h ([1]; human, plasma)	Stability in human blood plasma, 1 h ([1]; human, plasma)	Stability in human blood plasma, 3 h ([1]; human, plasma)	Stability in a rat blood plasma, 0 h ([2]; rat, plasma)	Stability in a rat blood plasma, 0.5 h ([2]; rat, plasma)	Stability in a rat blood plasma, 1 h ([2]; rat, plasma)	Stability in a rat blood plasma, 3 h ([2]; rat, plasma)	Stability in human blood plasma, 0 h [1, 4]	further results
CN(CC(=O)NCC(=O)OCc1ccccc1)C(=N)N.Cl [Example 4, Creatinyl-Glycine Benzyl Ester Hydrochloride]	100%	98%	100%	99%	100%	99%	99%	96%		
CN(CC(=O)OCc1ccccc1)C(=N)N [Creatine benzyl ester, reference compound]									100%	Decrease of concentration in human blood plasma ([1]; during 0.75 hours): 53%; remaining at 0.75 h ([1]; human, blood plasma): 53%; remaining at 3 h ([1]; human, blood plasma): 46%
CCOC(=O)CNC(=O)[C@H](CCCNC(=N)N)NC(=O)[C@H](Cc1ccccc1)NC(=O)CN(C)C(=N)N [Example 7, Creatinyl-Phenylalanyl-Arginyl-Glycine Ethyl Ester Acetate]	100%				100%					remaining at 0.5 h ([1]; human, plasma): 94%; remaining at 1 h ([1]; human, plasma): 90%; remaining at 3 h ([1]; human, plasma): 85%; remaining at 0.5 h ([2]; rat, plasma): 93%; remaining at 1 h ([2]; rat, plasma): 92%; remaining at 3 h ([2]; rat, plasma): 85%
CC(=O)O.CN(CC(=O)N[C@@H](Cc1ccccc1)C(N)=O)C(=N)N [Example 3, Creatinyl-L-Phenylalanine Amide Acetate]	100%	100%	100%	100%	100%	96%	98%	99%		
CN(CC(=O)N[C@@H](Cc1ccccc1)C(N)=O)C(=N)N.O [Example 2, Creatinyl-L-Phenylalanine Amide Hydrate]	100%	99%	99%	100%	100%	100%	97%	98%		
CC(=O)O.CCOC(=O)CCCNC(=O)CN(C)C(=N)N [Example 1, Creatinyl-γ-Aminobutyric Acid Ethyl Ester Acetate]									100%	Stability in human blood plasma, 0.5 h [1, 4]: 99%; Stability in human blood plasma, 1 h [1, 4]: 103%; Stability in human blood plasma, 3 h [1, 4]: 104%; Stability in a rat blood plasma, 0 h [2, 4]: 100%; Stability in a rat blood plasma, 0.5 h [2, 4]: 96%; Stability in a rat blood plasma, 1 h [2, 4]: 98%; Stability in a rat blood plasma, 3 h [2, 4]: 99%
CN(CC(=O)N[C@@H](Cc1ccccc1)C(=O)O)C(=N)N.Cl [Example 8, Creatinyl-Phenylalanine hydrochloride]									100%	Stability in human blood plasma, 0.5 h [1, 4]: 99%; Stability in human blood plasma, 1 h [1, 4]: 98%; Stability in human blood plasma, 3 h [1, 4]: 97%; Stability in a rat blood plasma, 0 h [2, 4]: 100%; Stability in a rat blood plasma, 0.5 h [2, 4]: 98%; Stability in a rat blood plasma, 1 h [2, 4]: 98%; Stability in a rat blood plasma, 3 h [2, 4]: 95%
CN(CC(=O)O)C(=N)N.O [Creatine monohydrate]										Increase of the total Creatine content in a human's skeleton muscles [3]: more than 20%
